Measured values from patent publication US10889812B2, “Short non-coding protein regulatory RNAs (sprRNAs) and methods of use” (University of Maryland, Baltimore, priority 2014, dated 2021).
Entries after “also recorded” stand apart in the source; their conditions may differ. m = 2'-O-methyl; r = 2'-OH (RNA)

Legend:
[1] = test system: H1792 cells; assay: Trans-well invasion assay; format: cell-based, human; settings: H1792, vs control RNA oligonucleotides
Description: We then tested the potential impact of piR-L-163 in cell migration and invasion, two of the properties involving ERM's biological functions (Fehon, R. G., Mclatchey, A. I. & Bretscher, A. Organizing the cell cortex: the role of ERM proteins. Nat Rev Mol Cell Biol. 11, 276-287 (2010); Hunter, K. W. Ezrin, a key component in tumor metastasis. Trends Mol. Med. 10, 201-204 (2004); Luo, Y. et al. Recognition of CD146 as an ERM-binding protein offers novel mechanisms for melanoma cell migration. Oncogene 31, 306-321 (2013); Clucas, J. & Valderrama, F. ERM proteins in cancer progression. J Cell Sci. 128, 1253 (2015)).
Briefly, 24 hrs after transfection, 6×10^4 cells were placed in the upper chamber of Matrigel Invasion Chambers (BD Bioscience) with growth factor-free Keratinocyte-SFM and the bottom chamber were exposed to Keratinocyte-SFM medium supplemented with L-Glutamine, prequalified human recombinant EGF 1-53 and BPE. Invading cells were evaluated after 12 hrs according to the manufacturer's instruction. The numbers of invading cells were adjusted 15% downwards for Ant-163 treated cells or 15% upwards for piR-L-163 treated cells to compensate the differences for the proliferation rates.

[2] = test system: p-ERM; assay: IP with anti-p-ERM antibody followed by RT-PCR in transfected H1792 cells; format: binding, human; settings: H1792 cells transfected with the oligonucleotide
Description: We next wanted to determine the site critical for piR-L-163's binding toP-ERM. We first analyzed the piR-L-163 sequence and identified a candidate motif “UUNNUUUNNUU” (SEQ ID NO:495) with potentially critical for the binding (FIG. 5a). We then generated 5 mutant forms of piR-L-163 named as M1-M5 (FIG. 5b and Table 3) to test their potential impact on the p-ERM binding. For this experiment, we used H1792 cells because these cells expressed extremely low level of endogenous piR-L-163 but considerable amount of p-ERM (FIG. 5c and FIG. 11a). H1792 cells were transfected with Scr (control), Ant-163, piR-L-163 (WT), or Mutant 1 (M1) to Mutant 5 (M5) RNA oligonucletides, respectively. An anti-p-ERM antibody was used for IP followed by RT-PCR using primers specific for Scr, Ant-163, piR-L-163, or M1-M5 (Table 6) to detect the corresponding oligonucleotides.
To amplify sncRNAs, we added an adaptor to the 3′ end, a process including adaptor ligation, RT and PCR (de Vanssay, A. et al. Paramutation in Drosophila linked to emergence of a piRNA-producing locus. Nature 490, 112-115 (2012); Li, Z. et al. Characterization of viral and human RNAs smaller than canonical MicroRNAs. J Virol. 83, 12751-12758 (2009)). For adaptor ligation, the adaptor /5′rapp/CTGTAGGCACCATCAAT/3′ddc/ (SEQ ID NO:499) with both 5′ and 3′ modification was used. Briefly, mixed 1 μl (10 pmol, ˜55 ng) of RNA 3′ adaptor and 4.4 μl (˜100 ng) of purified sncRNAs in a 1.5 ml EP tube; Incubated at 72° C. for 2 min, then placed on ice immediately and kept it on ice for at least 1 min; Added the following reagents (New England Biolabs) to the above tube: 0.8 μl 10×RNA ligase buffer, 1 μl RNase inhibitor, and 1 μl single strand RNA ligase; Mixed it well and incubated at 37° C. for 1 hr, then terminated the reaction at 65° C. for 15 min. For RT, SuperScript™ III First-Strand Synthesis System (Invitrogen) was used according to the manufacturer's instructions with gene specific primer (5′-[…]-3′) (SEQ ID NO:500). For PCR, a common reverse primer (5′-[…]-3′) (SEQ ID NO:501) and primers specific for individual sncRNAs (Table 6). Amplification conditions were denaturation at 95° C. for 30 s (5 min for the first cycle), annealing at 60° C. for 20 s and extension at 72° C. for 20 s (2 min for the last cycle) for 25 cycles.
For IP using anti-human Moesin or p-ERM antibodies, anti-Moesin (Clone Q480, Catalog No. 3150, Cell Signaling) or anti-p-ERM (Clone 41A3, Catalog No. 3149, Cell Signaling) antibodies were used and a rabbit IgG was used as a control. Briefly, Saturated protein G agarose beads (Sigma-Aldrich) with rabbit IgG, anti-Moesin or anti-p-ERM antibodies, respectively (1 μg antibody was used for 4 μl agarose beads) at 4° C. for 3 hrs, centrifuged at 2,200×g for 5 min, and discarded the upper aqueous phase; (2) Protein extracts prepared from cells using lysis buffer (20 mM Tris-cl, pH7.6, 150 mM NaCl, 20 mM KCl, 1.5 mM MgCl2, 0.5% NP-40, 0.5 mM PMSF) were pre-cleared using protein G agarose at 4° C. for 2 hrs, centrifuged at 2,200×g for 5 min, and transferred the upper aqueous phase to above tubes with agarose beads saturated with antibodies, respectively; Kept the tubes rotating overnight at 4° C., centrifuged at 2,200×g for 5 min, and washed the beads with lysis buffer twice; Extracted total RNAs from beads using Trizol Reagent (Life Technologies); Amplification of piR-L-163 or its mutants was performed according to the steps described in the “RT-PCR” section.

[3] = test system: MDM2; assay: Western blot of MDM2 cleavage and phosphorylation in SCC cells; format: cell-based, human; settings: SCC cells transfected, vs Scr RNA
Description: Primary antibodies used were: anti-Moesin (1:1,000, Clone Q480, Catalog No. 3150, Cell Signaling), anti-p-ERM (Clone 41A3, Catalog No. 3149, Cell Signaling), anti-Moesin (Clone 38/Moesin, Catalog No. 610401, BD Transduction Laboratories), anti-p-Moesin (Thr558, Catalog No. 12895, Sanra Cruz), anti-β-actin (1:5,000, Catalog No. A228, Sigma-Aldrich), anti-EBP50 (1:100, Clone 6/EBP50, Catalog No. 61160, BD Transduction Laboratories), anti-F-actin (1:100, Clone NH3, Catalog No. MA1-80729, Thermor Fisher), anti-p-Wee 1 (Se53, 1:1000, Catalog No. sc-130223, Sanra Cruz), anti-Wee 1 (C-20, 1:1000, Catalog No. sc-325, Sanra Cruz), anti-p-Cdc2 (Tyr15, 1:1000, Catalog No. 9111, Cell Signaling), anti-p-Cdk (Thr14/Tyr15-R, 1:1000, Catalog No. sc-28435-R, Sanra Cruz), anti-Cdc2 p34 (H-297, 1:1000, Catalog No. sc-747, Sanra Cruz), anti-p-Cdc25C (Ser198, 1:1000, Catalog No. 9529, Cell Signaling), anti-CDK2 (78B2, 1:1000, Catalog No. 2546, Cell Signaling), anti-p-Histone H2AX (Ser139, 20E3, :1000, Catalog No. 9718, Cell Signaling), and anti-GFP (N-terminal, 1:4000, Catalog No. G1544, Sigma). Secondary antibodies used were: Goat anti-Mouse (1:2,500, Catalog No. 31160, Pierce), and Goat anti-Rabbit (1:2,500, Catalog No. 31460, Pierce). Cells were lysed in RIPA buffer (Sigma) on ice after washed in PBS twice, centrifuge at […] for 10 min at 4° C. Protein in supernatant was qualified using BCA™ protein assay kit (Thermo Scitific) and denatured in SDS loading buffer in boiling water, run 10% SDS-PAGE gel and transferred to nitrocellulose membrane (Thermo Scitific). […]
Next, we wanted to explore potential mechanism of piR-L-138-mediated apoptosis inhibition in CDDP treated lung SCC cells. We first analyzed cleaved PARP, a protein marker indicative of apoptosis, and found it was increased in the SCC cells pre-treated with Ant-138 compared with Scr pre-treated cells (FIG. 15d). As both of the SCC cell lines harbor p53 mutations, we analyzed mouse double minute 2 homolog (MDM2) which has been implicated in apoptosis including p53-independent pathway (Bohlman S, Manfredi J J. p53-independent effects of Mdm2. Subcell Biochem. 85,235-46 (2014); Bouska A, Eischen C M. Mdm2 affects genome stability independent of p53. Cancer Res. 69, 1697-701 (2009); Zhang, Z., Li, M., Wang, H., Agrawal, S., and Zhang, R. Antisense therapy targeting MDM2 oncogene in prostate cancer: Effects on proliferation, apoptosis, multiple gene expression, and chemotherapy. Proc. Natl. Acad. Sci. 100, 11636-11641 (2003); Zhang Z, Wang H, Li M, Agrawal S, Chen X, Zhang R. MDM2 Is a Negative Regulator of p21WAF1/CIP1, Independent of p53. […]

| Substance | oligonucleotide detected by RT-PCR in anti-p-ERM IP products (binding to p-ERM) [2] | further results |
| --- | --- | --- |
| M1: mutant form of piR-L-163, RNA oligonucleotide, SEQ ID NO:519 (AUAUCAUGAUGACACGACGACACUCUGACC; (30)..(30) 2′-O-methylation) | no RT-PCR band could be detected | invasion capability [1]: no impact |
| M2: mutant form of piR-L-163, RNA oligonucleotide, SEQ ID NO:520 (AUAUCAUGAUGUUACGACGAUUCUCUGACC; sugars from the 5' end r29 m1, backbone not given here; further chemistry not fully specified) | no RT-PCR band could be detected |  |
| M3: mutant form of piR-L-163, RNA oligonucleotide, SEQ ID NO:521 (AUAUCAUGAUGUUACGCUGAUUCUCUGACC; sugars from the 5' end r29 m1, backbone not given here; further chemistry not fully specified) | RT-PCR bands with expected sizes were detected; also recorded: substantially weaker |  |
| M4: mutant form of piR-L-163, RNA oligonucleotide, SEQ ID NO:522 (AUAUCAUGAUGUUACUCUGAUUCUCUGACC; sugars from the 5' end r29 m1, backbone not given here; further chemistry not fully specified) | RT-PCR bands with expected sizes were detected |  |
| M5: mutant form of piR-L-163, RNA oligonucleotide, SEQ ID NO:523 (AUUUCAUGAUGUUACUUUGAUUCUCUGACC; sugars from the 5' end r29 m1, backbone not given here; further chemistry not fully specified) | RT-PCR bands with expected sizes were detected |  |
| Scr: scrambled DNA or RNA oligonucleotides used as control (SEQ ID NO:506 DNA, SEQ ID NO:524 RNA) (DNA GATACCAGGGACATACGCTTGATCCTAGC; chain GAUACCAAGGACAUACGCUUAUGCAUGCUA; DNA: DNA, backbone and methylation of C not given here; chain: chemistry not given here) [reference compound] | no RT-PCR band could be detected |  |
| piR-L-138: sprRNA, SEQ ID NO:268; piRNA-L down-regulated in NSCLC cells, up-regulated upon cisplatin (ACUUUAGCUCUAGAAUUACUCUGAGACCU; expressed or natural sequence; listed as Homo sapiens) |  | MDM2 cleavage [3]: enhanced MDM2 cleavage; Serine-166 phosphorylation in cleaved MDM2 [3]: reduced Serine-166 phosphorylation in cleaved MDM2 |
